Results taken from publication PMC8079033, “Design, synthesis, anticancer evaluation, and molecular modelling studies of novel tolmetin derivatives as potential VEGFR-2 inhibitors and apoptosis inducers” (Journal of Enzyme Inhibition and Medicinal Chemistry, 2021).

Tests used:
786-0 = test: NCI 60-cell line one-dose antiproliferative screen (SRB); type: cell-based; settings: Homo sapiens, read-out: growth inhibition % (GI%)
Description: (§1) Anticancer activity screening of the newly synthesised compounds was measured in vitro utilising 60 different human tumour cell lines provided by US National Cancer Institute according to previously reported standard procedure[41–43] as follows: Cells are inoculated into 96-well microtiter plates in 100 ml. After cell inoculation, the microtiter plates are incubated at 37 °C, 5% CO2, 95% air, and 100% relative humidity for 24 h prior to addition of experimental compounds. After 24 h, two plates of each cell line are fixed in situ with TCA, to represent a measurement of the cell population for each cell line at the time of compound addition (Tz). Experimental compounds are solubilised in dimethyl sulfoxide at 400-fold the desired final maximum test concentration and stored frozen prior to use. At the time of compound addition, an aliquot of frozen concentrate is thawed and diluted to twice the desired final maximum test concentration with a complete medium containing […] gentamicin. Aliquots of […] of the compounds dilutions are added to the appropriate microtiter wells already containing 100 ml of medium, resulting in the required final compound concentration. Following compound addition, the plates are incubated for an additional 48 h at 37 °C, 5% CO2, 95% air, and 100% relative humidity. For adherent cells, the assay is terminated by the addition of cold trichloroacetic acid (TCA). Cells are fixed in situ by the gentle addition of 50 ml of cold 50% (w/v) TCA (final concentration, 10% TCA) and incubated for […] at 4 °C. The supernatant is discarded, and the plates are washed five times with tap water and air-dried. Sulforhodamine B (SRB) solution (100 ml) at 0.4% (w/v) in 1% acetic acid is added to each well, and plates are incubated for 10 min at room temperature. After staining, the unbound dye is removed by washing five times with 1% acetic acid and the plates are air-dried. The bound stain is subsequently solubilised with a 10 mM trizma base, and the absorbance is read on an automated plate reader at a wavelength of 515 nm. For suspension cells, the methodology is the same except that the assay is terminated by fixing settled cells at the bottom of the wells by gently adding 50 ml of 80% TCA (final concentration, 16% TCA). Using the absorbance measurements [time zero, (Tz), control growth, (C), and test growth in the presence of compound (Ti)], the percentage growth is calculated for each compound. The One-dose data are reported as a mean graph of the percent growth of treated cells. The reported number is growth relative to the no-compound control, and relative to the time zero number of cells. This allows the detection of both growth inhibition and lethality.
(§2) Fifteen newly synthesised compounds were tested for their in vitro antiproliferative activity by the National Cancer Institute (NCI), Maryland, USA[50], under the Developmental Therapeutic Program (DTP)[41]^,[43]^,[51]^,[52]. The tested compounds were evaluated at a concentration of 10 µM on a panel of 60 tumour cell lines representing leukaemia and non-small cell lung, colon, CNS, melanoma, ovarian, renal, prostate, and breast cancers. The antiproliferative activity was presented by the NCI as percent growth of the treated cells and is presented in Table 1 as growth inhibition percentage (GI%) achieved by the tested compounds.

A498 = test: as above; type: cell-based; settings: Homo sapiens, read-out: growth inhibition % (GI%)
Description: as §1, §2

A549/ATCC = test: as above; type: cell-based; settings: Homo sapiens, read-out: growth inhibition % (GI%)
Description: as §1, §2

ACHN = test: as above; type: cell-based; settings: Homo sapiens, read-out: growth inhibition % (GI%)
Description: as §1, §2

BT-5 = test: as above; type: cell-based; settings: Homo sapiens, read-out: growth inhibition % (GI%)
Description: as §1, §2

CAKI-1 = test: as above; type: cell-based; settings: Homo sapiens, read-out: growth inhibition % (GI%)
Description: as §1, §2

EKVX = test: as above; type: cell-based; settings: Homo sapiens, read-out: growth inhibition % (GI%)
Description: as §1, §2

HCT-116 = test: as above; type: cell-based; settings: Homo sapiens, read-out: growth inhibition % (GI%)
Description: as §1, §2

HCT-15 = test: as above; type: cell-based; settings: Homo sapiens, read-out: growth inhibition % (GI%)
Description: as §1, §2

HL-60 (TB) = test: as above; type: cell-based; settings: Homo sapiens, read-out: growth inhibition % (GI%)
Description: as §1, §2

HOP-62 = test: as above; type: cell-based; settings: Homo sapiens, read-out: growth inhibition % (GI%)
Description: as §1, §2

HS 578 T = test: as above; type: cell-based; settings: Homo sapiens, read-out: growth inhibition % (GI%)
Description: as §1, §2

IGROV1 = test: as above; type: cell-based; settings: Homo sapiens, IGROV-1, read-out: growth inhibition % (GI%)
Description: as §1, §2

K-562 = test: as above; type: cell-based; settings: Homo sapiens, K562, read-out: growth inhibition % (GI%)
Description: as §1, §2

LOX IMVI = test: as above; type: cell-based; settings: Homo sapiens, read-out: growth inhibition % (GI%)
Description: as §1, §2

M14 = test: as above; type: cell-based; settings: Homo sapiens, read-out: growth inhibition % (GI%)
Description: as §1, §2

MCF7 = test: as above; type: cell-based; settings: Homo sapiens, read-out: growth inhibition % (GI%)
Description: as §1, §2

MDA-MB-231/ATCC = test: as above; type: cell-based; settings: Homo sapiens, read-out: growth inhibition % (GI%)
Description: as §1, §2

MDA-MB-435 = test: as above; type: cell-based; settings: Homo sapiens, read-out: growth inhibition % (GI%)
Description: as §1, §2

MDA-MB-468 = test: as above; type: cell-based; settings: Homo sapiens, read-out: growth inhibition % (GI%)
Description: as §1, §2

NCI-H226 = test: as above; type: cell-based; settings: Homo sapiens, read-out: growth inhibition % (GI%)
Description: as §1, §2

NCI-H23 = test: as above; type: cell-based; settings: Homo sapiens, read-out: growth inhibition % (GI%)
Description: as §1, §2

NCI-H522 = test: as above; type: cell-based; settings: Homo sapiens, read-out: growth inhibition % (GI%)
Description: as §1, §2

OVCAR-4 = test: as above; type: cell-based; settings: Homo sapiens, read-out: growth inhibition % (GI%)
Description: as §1, §2

OVCAR-5 = test: as above; type: cell-based; settings: Homo sapiens, read-out: growth inhibition % (GI%)
Description: as §1, §2

OVCAR-8 = test: as above; type: cell-based; settings: Homo sapiens, read-out: growth inhibition % (GI%)
Description: as §1, §2

SF-268 = test: as above; type: cell-based; settings: Homo sapiens, read-out: growth inhibition % (GI%)
Description: as §1, §2

SF-295 = test: as above; type: cell-based; settings: Homo sapiens, read-out: growth inhibition % (GI%)
Description: as §1, §2

SF-539 = test: as above; type: cell-based; settings: Homo sapiens, read-out: growth inhibition % (GI%)
Description: as §1, §2

SK-MEL-5 = test: as above; type: cell-based; settings: Homo sapiens, read-out: growth inhibition % (GI%)
Description: as §1, §2

SN 12 C = test: as above; type: cell-based; settings: Homo sapiens, SN12C, read-out: growth inhibition % (GI%)
Description: as §1, §2

SNB-19 = test: as above; type: cell-based; settings: Homo sapiens, read-out: growth inhibition % (GI%)
Description: as §1, §2

SNB-75 = test: as above; type: cell-based; settings: Homo sapiens, read-out: growth inhibition % (GI%)
Description: as §1, §2

SR = test: as above; type: cell-based; settings: Homo sapiens, read-out: growth inhibition % (GI%)
Description: as §1, §2

SW-620 = test: as above; type: cell-based; settings: Homo sapiens, read-out: growth inhibition % (GI%)
Description: as §1, §2

T-47D = test: as above; type: cell-based; settings: Homo sapiens, T47D, read-out: growth inhibition % (GI%)
Description: as §1, §2

TK-10 = test: as above; type: cell-based; settings: Homo sapiens, read-out: growth inhibition % (GI%)
Description: as §1, §2

U251 = test: as above; type: cell-based; settings: Homo sapiens, U-251, read-out: growth inhibition % (GI%)
Description: as §1, §2

UACC-257 = test: as above; type: cell-based; settings: Homo sapiens, read-out: growth inhibition % (GI%)
Description: as §1, §2

UACC-62 = test: as above; type: cell-based; settings: Homo sapiens, read-out: growth inhibition % (GI%)
Description: as §1, §2

UO-31 = test: as above; type: cell-based; settings: Homo sapiens, read-out: growth inhibition % (GI%)
Description: as §1, §2

[1] = test system: panel of 60 tumour cell lines; test: NCI 60-cell line one-dose screen, summary over the panel; type: cell-based, human; settings: 10 µM
Description: Anticancer activity screening of the newly synthesised compounds was measured in vitro utilising 60 different human tumour cell lines provided by US National Cancer Institute according to previously reported standard procedure[41–43] as follows: Cells are inoculated into 96-well microtiter plates in 100 ml. After cell inoculation, the microtiter plates are incubated at 37 °C, 5% CO2, 95% air, and 100% relative humidity for 24 h prior to addition of experimental compounds. After 24 h, two plates of each cell line are fixed in situ with TCA, to represent a measurement of the cell population for each cell line at the time of compound addition (Tz). Experimental compounds are solubilised in dimethyl sulfoxide at 400-fold the desired final maximum test concentration and stored frozen prior to use. At the time of compound addition, an aliquot of frozen concentrate is thawed and diluted to twice the desired final maximum test concentration with a complete medium containing […] gentamicin. Aliquots of […] of the compounds dilutions are added to the appropriate microtiter wells already containing 100 ml of medium, resulting in the required final compound concentration. Following compound addition, the plates are incubated for an additional 48 h at 37 °C, 5% CO2, 95% air, and 100% relative humidity. […] The bound stain is subsequently solubilised with a 10 mM trizma base, and the absorbance is read on an automated plate reader at a wavelength of 515 nm. […] Using the absorbance measurements [time zero, (Tz), control growth, (C), and test growth in the presence of compound (Ti)], the percentage growth is calculated for each compound. […]
as §2, with “The antiproliferative activity was presented by the NCI as percent growth of the treated cells and is presented in Table 1 as growth inhibition percentage (GI%) achieved by the tested compounds.” left out

`Cc1ccc(C(=O)c2ccc(CC(=O)NN=Cc3ccc4c(c3)OCO4)n2C)cc1` [Compound 5d, N′-(Benzo[d][1,3]dioxol-5-ylmethylene)-2–(1-methyl-5–(4-methylbenzoyl)-1H-pyrrol-2-yl)acetohydrazide] was tested, and the inhibition at 10 µM (786-0) was under 10%, the inhibition at 10 µM (A498) was 13.1% and the inhibition at 10 µM (A549/ATCC) was under 10%. The inhibition at 10 µM (ACHN) was under 10%, the inhibition at 10 µM (BT-5) was under 10% and the inhibition at 10 µM (CAKI-1) was under 10%. It also gave an inhibition at 10 µM (EKVX) of under 10%, an inhibition at 10 µM (HCT-116) of under 10% and an inhibition at 10 µM (HCT-15) of under 10%. For the same compound, the inhibition at 10 µM (HL-60 (TB)) was under 10%, the inhibition at 10 µM (HOP-62) was under 10% and the inhibition at 10 µM (HS 578 T) was under 10%. For the same compound, the inhibition at 10 µM (IGROV1) was under 10%, the inhibition at 10 µM (K-562) was under 10% and the inhibition at 10 µM (LOX IMVI) was under 10%. For the same compound, the inhibition at 10 µM (M14) was under 10%, the inhibition at 10 µM (MCF7) was under 10% and the inhibition at 10 µM (MDA-MB-231/ATCC) was under 10%. For the same compound, the inhibition at 10 µM (MDA-MB-435) was under 10%, the inhibition at 10 µM (MDA-MB-468) was under 10% and the inhibition at 10 µM (NCI-H226) was under 10%. For the same compound, the inhibition at 10 µM (NCI-H23) was under 10%, the inhibition at 10 µM (NCI-H522) was 12.4% and the inhibition at 10 µM (OVCAR-4) was under 10%. The inhibition at 10 µM (OVCAR-5) was under 10%, the inhibition at 10 µM (OVCAR-8) was under 10% and the inhibition at 10 µM (SF-268) was under 10%. It also gave an inhibition at 10 µM (SF-295) of under 10%, an inhibition at 10 µM (SF-539) of under 10% and an inhibition at 10 µM (SK-MEL-5) of under 10%. It also gave an inhibition at 10 µM (SN 12 C) of under 10%, an inhibition at 10 µM (SNB-19) of under 10% and an inhibition at 10 µM (SNB-75) of under 10%. For the same compound, the inhibition at 10 µM (SR) was under 10%, the inhibition at 10 µM (SW-620) was under 10% and the inhibition at 10 µM (T-47D) was 15.6%. For the same compound, the inhibition at 10 µM (TK-10) was under 10%, the inhibition at 10 µM (U251) was under 10% and the inhibition at 10 µM (UACC-257) was under 10%. The inhibition at 10 µM (UACC-62) was under 10%, the inhibition at 10 µM (UO-31) was 22.2% and the “antiproliferative activity over the panel (in words)” value [1] was “inactive against most investigated cell lines”.
